Measurements: ChEMBL document CHEMBL1134720, “Antitumour benzothiazoles. Part 15: The synthesis and physico-chemical properties of 2-(4-aminophenyl)benzothiazole sulfamate salt derivatives” (Bioorg Med Chem Lett, 2001)

Columns and labels:
[1] = Log P (Octanol:buffer pH 7.4); format: physicochemical
[2] = Log P (Cyclohexane:buffer pH 7.4); format: physicochemical
[3] = system: MCF7; test: Antitumor activity expressed as inhibitory concentration against human breast cell line MCF-7(ER+ve); format: functional, cell-based
[4] = Antitumor activity expressed as inhibitory concentration against human breast cell line MDA 468(ER-ve); format: functional, cell-based; conditions: MDA-MB-468
[5] = Solubility of compound at pH 7.5; format: physicochemical; conditions: buffer
[6] = Solubility of compound at pH 5.4; format: physicochemical; conditions: buffer
[7] = Solubility of compound at pH 6; format: physicochemical; conditions: buffer
[8] = Delta Log P was determined; format: physicochemical; conditions: octanol/water
[9] = Solubility of compound at pH 9; format: physicochemical; conditions: buffer
[10] = Solubility of compound at pH 7.1; format: physicochemical; conditions: buffer
[11] = Solubility of compound at pH 4.2; format: physicochemical; conditions: buffer

SMILES	logD [1]	logD [2]	IC50 [3]	IC50 [4]	solubility [5]	solubility [6]	solubility [7]	delta Log P [8]	solubility [9]	solubility [10]	solubility [11]
Cc1cc(-c2nc3ccccc3s2)ccc1N	3.96	2.51	–	–	–	–	–	–	–	–	–
Nc1ccc(-c2nc3ccccc3s2)cc1Cl	> 3.3	> 3.2	–	–	–	–	–	–	–	–	–
O=S(=O)([O-])Nc1ccc(-c2nc3ccccc3s2)cc1Cl.[Na+]	0.02	< 2.19	0.42 µM	9 µM	300 µg/mL	300 µg/mL	400 µg/mL	> 2.17	700 µg/mL	300 µg/mL	500 µg/mL
Nc1ccc(-c2nc3ccccc3s2)cc1I	> 3.3	> 2.7	–	–	–	–	–	–	–	–	–
O=S(=O)(O)Nc1ccc(-c2nc3ccccc3s2)cc1	3.4	–	3.4 µM	7.5 µM	–	–	–	–	–	–	–

Now from value to compound:

logD [1]	logD [2]	IC50 [3]	IC50 [4]	solubility [5]	solubility [6]	solubility [7]	delta Log P [8]	solubility [9]	solubility [10]	solubility [11]	SMILES
> 3.3	> 2.8	–	–	–	–	–	–	–	–	–	Nc1ccc(-c2nc3ccccc3s2)cc1Br
1.8	1.9	1.8 µM	1.9 µM	–	–	–	–	–	–	–	O=S(=O)([O-])Nc1ccc(-c2nc3ccccc3s2)cc1I.[Na+]
0.6	< 3	0.49 µM	0.72 µM	–	–	–	> 2.4	–	–	–	Cc1cc(-c2nc3ccccc3s2)ccc1NS(=O)(=O)[O-].[Na+]
